Assay results: patent publication US10278971B2, “Fluorocyclopentenylcytosine methods of use” (Rexahn Pharmaceuticals, Inc., priority 2015, dated 2019)

What was measured:
[1] = tested on: advanced malignant tumors; experiment: Efficacy in subjects with advanced malignant tumors; assay type: in vivo, human; conditions: 48 subjects enrolled
Method: The efficacy, safety and tolerability of RX-3117 at various doses and frequencies were evaluated (see Example 4, above). Subjects with advanced malignant tumors were administered capsules containing RX-3117 at various doses, from TIWK to 7 times per week for 3 weeks with 1 week off during each 4-week cycle. Dose escalation begins with an accelerated design treating 1 subject per dose (Simon et al., J. Natl. Cancer Inst., 89(15):1138-47 (1997) followed by a standard 3+3 design using a modified Fibonacci sequence after the occurrence of a single related Grade 2 or greater adverse event. Table 4 (above) summarizes the dosing schedule.

MC38 murine colon cancer = experiment: Syngeneic MC38 murine colon cancer model, tumor growth; assay type: in vivo
Method: Following the protocol described below, the effect of RX-3117 on tumor growth in a syngeneic model using female C57BL/6 mice with MC38 murine colon cancer was examined. Tumor growth was measured in a treatment group compared to a control (vehicle treated) group (see Table 1 below for dosing scheme and treatment regimen).
Briefly, the method is described as follows. The cells were harvested during exponential growth and re-suspended with phosphate buffered saline. Each test animal received a subcutaneous (s.c.) injection of 1×10^6 tumor cells into the right flank and tumor growth was monitored as the average tumor size approaches the target range of 60-100 mm^3. Dosing, based on Table 1 started as each animal reached this target range.
Tumors were measured in two dimensions using calipers, and volume calculated using the formula:
[…] The MTV (n), the median tumor volume for the number of animals, n, on Day 45, was determined for each group. Percent tumor growth inhibition (% TGI) is defined as the difference between the MTV of the designated control group (vehicle administration) and the MTV of the drug-treated group, expressed as a percentage of the MTV of the control group:
The data set for TGI analysis includes all animals in a group, except those that died due to treatment-related (TR) or non-treatment-related (NTR) causes. An agent that produces at least 60% TGI in this assay is considered to be potentially therapeutically active.
Treatment efficacy was determined from the number of regression responses. Treatment may cause partial regression (PR) or complete regression (CR) of the tumor in an animal. In a PR response, the tumor volume is 50% or less of its D1 volume for three consecutive measurements during the course of the study, and equal to or greater than 13.5 mm^3 for one or more of these three measurements. In a CR response, the tumor volume is less than 13.5 mm^3 for three consecutive measurements during the course of the study. Any animal with a CR response on the last day of the study was additionally classified as a tumor-free-survivor.
For toxicity assessments, animals were weighed daily for the first five days of the study and twice weekly thereafter. The mice were observed frequently for overt signs of any adverse, treatment-related side effects, and clinical signs of toxicity are recorded when observed.
Acceptable toxicity is defined as a group mean body-weight loss of less than 20% during the study and not more than one treatment-related (TR) death among ten treated animals. Any dosing regimen resulting in greater toxicity is considered above the maximum tolerated dose (MTD). […]

[2] = tested on: A2780 ovarian cancer cells and NSCLC cell lines; experiment: Radiosensitizing effect, summary over cell lines; assay type: cell-based, human; conditions: preincubation, pulse and fractionated irradiation
Method: Exponential growing A2780, SW1573, A549, H460 and SW1573/G-cells were exposed to 1 μM RX-3117 or untreated (control) for 24 h and irradiated with single doses γ-radiation (0-6 Gy) using a ^60Co source (Gammacell 200, Atomic Energy of Canada, Ltd). Subsequently, 500 cells/T25 flasks were plated and allowed to form colonies. After ten days colonies were fixed with 100% ethanol and stained with 10% Giemsa stain solution (Merck Chemicals BV, Amsterdam, the Netherlands) for colonies counting. Plating efficiency (PE) was calculated by dividing the number of colonies formed through the number of cells plated and normalized for cytotoxicity induced by control. To illustrate the effect of RX-3117 on radiation, dose modifying factor (DMF) was calculated as described earlier (Bijnsdorp I V, van den Berg J, Kuipers G K, Wedekind L E, Slotman B J, van Rijn J, Lafleur M V M and Sminia P: Radiosensitizing potential of the selective cyclooygenase-2 (COX-2) inhibitor meloxicam on human glioma cells. J Neurooncol 85: 25-31, 2007).

[3] = Day 45, N=10 per group, same regimens

## Nc1ccn([C@@H]2C(F)=C(CO)[C@@H](O)[C@H]2O)c(=O)n1 [RX-3117, 4-amino-1-((1S,4R,5S)-2-fluoro-4,5-dihydroxy-3-hydroxymethyl-cyclopent-2-enyl)-1H-pyrimidin-2-one]
[1]; various oral doses and frequencies
  subjects with stable disease for 1 to 10 cycles: Seventeen
[1]; pancreatic, breast and mesothelioma cancers
  subjects with tumor burden reduction: 3 subjects
MC38 murine colon cancer; [3]
  CR: No. of Complete Regressions: 0
  PR: No. of Partial Regressions: 0
  TFS: No. of Tumor Free Survivors: 0
MC38 murine colon cancer; female C57BL/6 mice, MC38 s.c., RX-3117 60 mg/kg po (5/2) x 3, anti-PD-1 RMP1-14 100 μg/animal ip biwk x 2, 60 mg/kg
  TGI Day 28 (tumor growth inhibition): 80%
[2]
  dose modifying factors: 1.4-1.8
